According to ChEMBL document CHEMBL3046116, “QSAR and pharmacophore analysis of thiosemicarbazone derivatives as ribonucleotide reductase inhibitors” (Med Chem Res, 2012):

These compounds were tested against T1, Ribonucleoside-diphosphate reductase RR1 (Homo sapiens, UniProt P23921+P31350+Q7LG56) (assay: Inhibition of N-terminal 6xHis-tagged Homo sapiens (human) recombinant ribonucleotide reductase M2/M1 expressed in Escherichia coli BL21 (DE3) using [3H]CDP as substrate after 30 min).
T1 sequence (P23921 whole entry): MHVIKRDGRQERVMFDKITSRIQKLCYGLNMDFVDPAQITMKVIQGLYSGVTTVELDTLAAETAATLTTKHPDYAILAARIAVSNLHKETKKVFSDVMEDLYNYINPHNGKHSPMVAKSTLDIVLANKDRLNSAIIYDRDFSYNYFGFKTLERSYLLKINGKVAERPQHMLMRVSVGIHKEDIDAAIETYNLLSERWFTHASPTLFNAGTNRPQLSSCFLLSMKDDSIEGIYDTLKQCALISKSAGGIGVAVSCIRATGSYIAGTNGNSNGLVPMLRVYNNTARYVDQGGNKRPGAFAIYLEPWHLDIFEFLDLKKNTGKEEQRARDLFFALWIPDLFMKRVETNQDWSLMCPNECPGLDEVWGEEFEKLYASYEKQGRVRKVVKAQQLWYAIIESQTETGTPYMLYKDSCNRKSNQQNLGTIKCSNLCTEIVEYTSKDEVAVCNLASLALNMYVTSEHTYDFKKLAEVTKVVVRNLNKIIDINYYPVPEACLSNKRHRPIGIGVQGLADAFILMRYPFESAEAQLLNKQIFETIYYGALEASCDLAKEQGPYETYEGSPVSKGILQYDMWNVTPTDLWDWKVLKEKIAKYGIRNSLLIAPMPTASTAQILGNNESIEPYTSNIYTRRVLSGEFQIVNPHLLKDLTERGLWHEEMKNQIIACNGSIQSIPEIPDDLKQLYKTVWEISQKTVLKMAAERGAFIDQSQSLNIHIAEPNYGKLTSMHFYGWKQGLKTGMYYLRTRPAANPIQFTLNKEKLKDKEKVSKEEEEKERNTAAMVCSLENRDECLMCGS
T1 sequence (Q7LG56 whole entry): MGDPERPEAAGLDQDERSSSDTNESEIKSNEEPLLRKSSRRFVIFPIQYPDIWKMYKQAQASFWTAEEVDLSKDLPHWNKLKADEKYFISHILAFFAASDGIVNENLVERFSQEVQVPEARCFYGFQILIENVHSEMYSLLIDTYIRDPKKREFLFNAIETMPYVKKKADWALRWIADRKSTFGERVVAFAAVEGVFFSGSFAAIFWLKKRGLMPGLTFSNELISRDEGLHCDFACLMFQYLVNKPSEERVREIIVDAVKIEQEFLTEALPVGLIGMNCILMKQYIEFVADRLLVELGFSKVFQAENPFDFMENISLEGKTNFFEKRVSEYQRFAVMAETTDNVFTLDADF
T1 sequence (P31350 whole entry): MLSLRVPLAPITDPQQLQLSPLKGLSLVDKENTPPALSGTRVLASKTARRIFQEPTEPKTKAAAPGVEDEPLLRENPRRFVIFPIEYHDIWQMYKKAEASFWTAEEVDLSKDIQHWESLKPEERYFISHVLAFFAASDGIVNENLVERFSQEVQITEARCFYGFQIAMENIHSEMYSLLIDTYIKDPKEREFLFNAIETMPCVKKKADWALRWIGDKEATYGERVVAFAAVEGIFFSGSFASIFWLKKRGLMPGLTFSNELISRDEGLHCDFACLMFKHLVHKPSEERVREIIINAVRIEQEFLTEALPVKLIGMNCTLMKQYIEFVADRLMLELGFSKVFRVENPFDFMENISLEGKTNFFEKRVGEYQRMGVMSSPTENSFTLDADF

Q: How did the IC50 turn out when `Oc1ccc(/C=N/NC(=S)Nc2ccc(Cl)cc2)cc1` was run?
A: 287 µM

Q: How did the IC50 turn out when `Oc1ccc(/C=N/NC(=S)Nc2ccc(O)cc2)cc1` was run?
A: 43.3 µM

Q: Which IC50 does the source give for `Oc1ccc(/C=N/NC(=S)Nc2ccccc2)cc1` here?
A: 242 µM

Q: `Cc1ccccc1NC(=S)N/N=C/c1ccc(O)cc1` was tested. Which IC50 did it give?
A: 36.5 µM

Q: How did the IC50 turn out when `Oc1ccc(/C=N/NC(=S)Nc2ccccc2Cl)cc1` was run?
A: 46.8 µM

Q: With `Cc1cccc(NC(=S)N/N=C/c2ccc(O)cc2)c1` as the compound, how does the IC50 read?
A: 30.4 µM

Q: For `O=[N+]([O-])c1ccccc1NC(=S)N/N=C/c1ccc(O)cc1`, which IC50 is on record?
A: 39.3 µM

Q: For `O=[N+]([O-])c1ccc(NC(=S)N/N=C/c2ccc(O)cc2)cc1`, which IC50 is on record?
A: 45.1 µM

Q: For `Oc1ccc(/C=N/NC(=S)Nc2cccc(Cl)c2)cc1`, which IC50 is on record?
A: 29.3 µM

Q: Which IC50 does the source give for `Oc1ccc(/C=N/NC(=S)Nc2ccccc2O)cc1` here?
A: 29.3 µM

Q: Which IC50 does the source give for `Oc1ccc(/C=N/NC(=S)Nc2cccc(O)c2)cc1` here?
A: 28.6 µM

Q: For `Cc1ccc(NC(=S)N/N=C/c2ccc(O)cc2)cc1`, which IC50 is on record?
A: 14.2 µM

Q: Which IC50 does the source give for `COc1ccccc1NC(=S)N/N=C/c1ccc(O)cc1` here?
A: 41.6 µM
